In one series the target is CYP2D6 (Homo sapiens (Human), UniProt P10635). The series is described as follows: Cytochrome P450 CYP2D6 inhibition in human liver microsomes. It counts as in vitro ADME. Conditions: for pIC50 / inhibition at 20 min, 1 µM: human liver microsomes, average value from two experiments; for inhibition at 20 min, 1 µM: probe dextromethorphan 2 µM (dextrorphan formation), 1 uM test compound, negative values = no effective inhibition. The method in brief:
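Human liver microsomes (0.2 mg/mL) with 2 μM dextromethorphan in 100 mM PBS, test compound at 1 μM or 0.1-30 μM, 15 min preincubation then NADPH-started reaction for 20 min at 37° C, in duplicate. Dextrorphan formation by UPLC-MS/MS; IC50 from % decrease versus uninhibited control.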
(Microsomes from liver hold many membrane-bound enzymes, among them those of drug oxidation.)

The test system of another series is mPTP. The series is described as follows: mPTP activity assay in isolated rat brain mitochondria. It counts as biochemical. To be noted: isolated rat brain mitochondria. The protocol: mPTP activity was measured in brain mitochondria freshly isolated from female Sprague Dawley (250 to 300 gram) rats. Anaesthetised rats were perfused in-situ with ˜40 ml cold Dulbecco's Phosphate Buffered Saline (DPBS), then brains dissected and transferred into 30 ml Isolation Buffer (225 mM mannitol, 75 mM sucrose, 1 mM EGTA, adjusted to pH 7.4 with 1 M NaOH). The brain was minced using tweezers and a scalpel into ˜5 mm pieces then transferred into a 50 ml Potterton Dounce homogenization tube on ice containing 10 ml ice-cold isolation buffer (as above with addition of Complete Protease inhibitor; 1 tablet per 50 ml buffer).
Homogenisation was carried out using a […] pestle at 1800 rpm. The slurry was centrifuged at 2000 g for 10 min at 4° C., then the supernatant centrifuged at 12,000 g for 9 min. The pellet was resuspended with a dounce homogeniser in isolation buffer as above but with the addition of 0.02% digitonin, centrifuged at 12,000 g for 11 min and finally resuspended in 5 ml modified isolation buffer (as above but with EGTA reduced to 0.1 mM).
Test compounds were prepared in 384 well polypropylene assay plates as described above for the liver mitochondria assay. A stock mitochondria/Fluo5N assay solution was prepared in 5.6 ml assay buffer (120 mM mannitol, 40 mM MOPS, 5 mM KH2PO4, 60 mM KCl, 10 mM pyruvate, 2 mM malate, 2 mM MgCl2, 20 μM ADP, 1.26 μM oligomycin A, adjusted to pH 7.4) supplemented with Fluo5N pentapotassium salt (2 μM) and 1 ml mitochondria suspension, then transferred (15 μl) into the assay plate containing test compounds and incubated for 10 min at RT. Assay plates were then transferred to a FLIPR Tetra plate reader (Molecular Devices). Dye fluorescence was then measured every 3 sec for a total of 10 min. After 12 sec, a 2.5 μl bolus of Ca2+ (75 μM) was added from a source plate containing 675 μM CaCl2) in FLIPR assay buffer. IC50 values for test compounds were calculated using the fluorescence value collected at the 10 min timepoint with % inhibition calculated using the DMSO control and cyclosporin A values at […].

The nature of series [1]: Microsomal clearance assay. Conditions: rat liver microsomes; average value from two experiments. It counts as in vitro ADME. The protocol: The microsomal stability of test compounds was evaluated using rat liver microsomes (BiolVT) with and without the cofactors nicotinamide adenine dinucleotide phosphate (NADPH) and undine-diphosphate-glucuronic acid (UDPGA). Reactions were performed in a final volume of 250 μl pre-warmed (37° C.) 100 mM phosphate buffer containing 5 mM MgCl2, 0.025 mg/ml alamethicin, and 0.5 mg/ml rat liver microsomes. NADPH and UDPGA were included at 1 mM and 2 mM respectively, where appropriate. Reactions were started with the addition of 1 μM (final concentration) test compound. Verapamil was used as the positive control. Solutions were incubated in a water bath at 37° C. and aliquots collected at 0.5, 5, 15, 30 and 60 min. Reactions were stopped by the addition of 5 volumes of cold acetonitrile with internal standards (200 nM caffeine and 100 nM tolbutamide). Samples were centrifuged at 3220 g for 40 min. An aliquot of supernatant was diluted 1:1 In ultra-pure H2O, then used for LC-MS/MS analysis. Peak areas were determined from extracted ion chromatograms. The slope value, k, was determined by linear regression of the natural logarithm of the remaining percentage of the parent drug vs. incubation time curve. The in vitro half-life (in vitro t½) was determined from the slope value: in vitro t½=0.693/k. Conversion of the in vitro t½ (min) into the in vitro intrinsic clearance (in vitro CLint, in μL/min/mg protein) was done using the following equation (mean of duplicate determinations): […]

Broadly, the pIC50 is the negative decadic logarithm of the IC50, by convention in mol/L. A higher pIC50 goes with a small IC50. A word on the inhibition: it is the drop in the measured response relative to a control, in per cent. As usually defined, the microsomal CLint is the capacity of the preparation to metabolise the compound, expressed as a volume cleared per time. A low value points to slow turnover.

SMILES strings stand for the structures. pIC50: −log10 of the molar value. Marks after values point to notes of the source that are not given here.

CYP2D6, sequence (P10635 whole entry): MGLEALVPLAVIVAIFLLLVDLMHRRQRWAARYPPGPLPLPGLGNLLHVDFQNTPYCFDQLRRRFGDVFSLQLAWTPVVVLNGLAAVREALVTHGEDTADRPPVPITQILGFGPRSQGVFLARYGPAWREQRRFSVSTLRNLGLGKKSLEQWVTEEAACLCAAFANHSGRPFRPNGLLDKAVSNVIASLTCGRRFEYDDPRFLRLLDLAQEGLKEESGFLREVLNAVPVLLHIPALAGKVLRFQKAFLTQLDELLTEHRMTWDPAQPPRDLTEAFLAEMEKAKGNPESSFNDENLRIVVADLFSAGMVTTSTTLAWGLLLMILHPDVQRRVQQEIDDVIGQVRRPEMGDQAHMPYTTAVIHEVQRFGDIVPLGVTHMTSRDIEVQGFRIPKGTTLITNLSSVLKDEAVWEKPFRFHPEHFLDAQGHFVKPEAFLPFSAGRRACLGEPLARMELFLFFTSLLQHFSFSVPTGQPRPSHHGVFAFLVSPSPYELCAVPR

Turning to `Cc1c(F)cccc1NC(=O)/C=C/c1ccc2cn[nH]c2c1` [Comparative Example 1, (E)-N-(2-methyl-3-fluorophenyl)-3-(1H-indazol-6-yl)acrylamide, reference compound], at CYP2D6, the “inhibition of CYP2D6 (in words)” value is recorded as “highly potent inhibitor of CYP2D6”; the negative logarithm of the IC50 (pIC50) was 7.13; the inhibition at 20 min, 1 µM was determined as 86.5%. In addition, in the series on mPTP, the “mPTP Rat brain pIC50” value came to 7.6. The “mPTP Rat brain pIC50” value in the series with mPTP (average value from a larger number of experiments) is recorded as 7.5***. For the same compound, in series [1], the microsomal CLint at 1 µM amounted to 43 µL/min/mg.

On to `Cc1c(F)cccc1NC(=O)/C=C/c1ccc2c(c1F)NC(=O)C2` [Example 5, (E)-N-(3-fluoro-2-methylphenyl)-3-(7-fluoro-2-oxoindolin-6-yl)acrylamide], for which, at CYP2D6, the inhibition at 20 min, 1 µM was -2.57%. In series [1], this compound registered a microsomal CLint at 1 µM of 17 µL/min/mg.

`Cc1c(F)cccc1NC(=O)/C=C/c1ccc2oc(=O)[nH]c2c1` [Example 6, (E)-N-(3-fluoro-2-methylphenyl)-3-(2-oxo-2,3-dihydrobenzo[d]oxazol-5-yl)acrylamide]: on CYP2D6, the pIC50 was 4.72 and the inhibition at 20 min, 1 µM was 5.08%. In series [1], this compound gave a microsomal CLint at 1 µM of 17 µL/min/mg.

Turning to `Cc1c(F)cccc1NC(=O)/C=C/c1ccc2c(c1)[nH]c(=O)n2C` [Example 7, (E)-N-(3-fluoro-2-methylphenyl)-3-(1-methyl-2-oxo-2,3-dihydro-1H-benzo[d]imidazol-5-yl)acrylamide], on CYP2D6, the pIC50 was below 4.52 and the inhibition at 20 min, 1 µM was 2.27%. Also, in the series with mPTP, the “mPTP Rat brain pIC50” value came out at 6.9. The same compound registered a microsomal CLint at 1 µM in series [1] of 6.5 µL/min/mg.

On to `Cc1c(F)cccc1NC(=O)/C=C/c1ccc2c(c1)NC(=O)C2C` (centres unmarked) [Example 8, (E)-N-(3-fluoro-2-methylphenyl)-3-(3-methyl-2-oxoindolin-6-yl)acrylamide], for which the inhibition at 20 min, 1 µM against CYP2D6 was 3.13%. This compound also gave a microsomal CLint at 1 µM in series [1] of 13 µL/min/mg.

For `Cc1c(F)cccc1NC(=O)/C=C/c1ccc2c(c1)NC(=O)C2` [Example 10, (E)-N-(3-fluoro-2-methylphenyl)-3-(2-oxoindolin-6-yl)acrylamide], at CYP2D6, the negative logarithm of the IC50 (pIC50) was below 4.52 and the inhibition at 20 min, 1 µM stood at 3.66%. Also, in the series on mPTP, the “mPTP Rat brain pIC50” value is given as 6.5. Besides, the microsomal CLint at 1 µM in series [1] came to 13 µL/min/mg.

Regarding `Cc1cccc(C)c1NC(=O)/C=C/c1ccc2c(c1)NC(=O)C2` [Example 19, (E)-N-(2,6-dimethylphenyl)-3-(2-oxoindolin-6-yl)acrylamide], the inhibition at 20 min, 1 µM on CYP2D6 is -3.04%. Moreover, the microsomal CLint at 1 µM in series [1] stood at 20 µL/min/mg.

For the compound `CCn1c(=O)[nH]c2cc(/C=C/C(=O)Nc3cccc(F)c3C)ccc21` [Example 22, (E)-3-(1-ethyl-2-oxo-2,3-dihydro-1H-benzo[d]imidazol-5-yl)-N-(3-fluoro-2-methylphenyl)acrylamide], the inhibition at 20 min, 1 µM against CYP2D6 was found to be 2.05%. The compound further displayed a microsomal CLint at 1 µM in series [1] of 9.85 µL/min/mg.

Regarding `Cc1c(F)cccc1NC(=O)/C=C/c1ccc2c(c1)[nH]c(=O)n2C1CC1` [Example 23, (E)-3-(1-cyclopropyl-2-oxo-2,3-dihydro-1H-benzo[d]imidazol-5-yl)-N-(3-fluoro-2-methylphenyl)acrylamide], the inhibition at 20 min, 1 µM on CYP2D6 was 0.7%. The compound also yielded a microsomal CLint at 1 µM in series [1] of 9.8 µL/min/mg.

On to `Cc1n[nH]c2cc(/C=C/C(=O)NC3CCc4ccccc43)ccc12` (centres unmarked) [Example 25, (E)-N-(2,3-dihydro-1H-inden-1-yl)-3-(3-methyl-1H-indazol-6-yl)acrylamide], for which, on CYP2D6, the pIC50 was 4.86 and the inhibition at 20 min, 1 µM is 2.05%. This compound displayed a microsomal CLint at 1 µM in series [1] of 52.9 µL/min/mg.

In the case of `Cc1ccc(F)c(C)c1NC(=O)/C=C/c1ccc2c(c1)[nH]c(=O)n2C` [Example 30, (E)-N-(3-fluoro-2,6-dimethylphenyl)-3-(1-methyl-2-oxo-2,3-dihydro-1H-benzo[d]imidazol-5-yl)acrylamide], the inhibition at 20 min, 1 µM against CYP2D6 is -3.33%. Moreover, the “mPTP Rat brain pIC50” value in the series with mPTP was 7.6.

With `Cc1c(F)cccc1NC(=O)/C(F)=C/c1ccc2c(c1)NC(=O)C2` [Example 47, (Z)-2-fluoro-N-(3-fluoro-2-methylphenyl)-3-(2-oxoindolin-6-yl)acrylamide], at CYP2D6, the inhibition at 20 min, 1 µM was found to be 1.91%. Besides, the microsomal CLint at 1 µM in series [1] worked out at 36.8 µL/min/mg.

As for `CO[C@H]1Cc2ccccc2[C@@H]1NC(=O)/C=C/c1ccc2c(C)n[nH]c2c1` [Example 54, (E)-N-((1S,2S)-2-methoxy-2,3-dihydro-1H-inden-1-yl)-3-(3-methyl-1H-indazol-6-yl)acrylamide], on CYP2D6, the inhibition at 20 min, 1 µM amounted to 8.2%. For the same compound, in the series on mPTP, the “mPTP Rat brain pIC50” value is on record as 7.7.

For the compound `CO[C@H]1Cc2ccccc2[C@@H]1NC(=O)/C=C/c1ccc2c(F)n[nH]c2c1` [Example 73, (E)-3-(3-fluoro-1H-indazol-6-yl)-N-((1S,2S)-2-methoxy-2,3-dihydro-1H-Inden-1-yl)acrylamide], the inhibition at 20 min, 1 µM against CYP2D6 was determined as 34.6%. For the same compound, in the series with mPTP, the “mPTP Rat brain pIC50” value turned out to be 7.7.

The values above are taken from US20250179028A1, “ACRYLAMIDE COMPOUNDS” (NRG THERAPEUTICS LTD, priority 2022, published 2025).
